Tests used:
NCI-H3122 = assay: Growth of cancer cells (Cell Titer-Glo viability), NCI-H3122; assay type: cell-based; settings: Homo sapiens; NCI-H3122 (expressing ALK gene), 72 hrs; read-out: GI50
BaF3-TEL-INSR = assay: Cell growth (Cell Titer-Glo viability), BaF3-TEL-INSR; assay type: cell-based; settings: Mus musculus; BaF3-TEL-INSR (stably expressing INSR protein), 72 hrs
Text: (§1) By testing the effect of the novel kinase inhibitors on the proliferation of cancer cells, the selectivity of the compounds of the present disclosure in inhibiting the proliferation of cancer cells was further assessed. In this example, human non-small cell lung cancer cell NCI-H1975 (expressing EGFR L858R/T790M double mutant gene), human skin squamous carcinoma cell A431 (expressing wild-type EGFR gene), non-small cell lung cancer NCI-H3255 (expressing EGFR L858R mutant gene), non-small cell lung cancer cell NCI-H3122 (expressing ALK gene), human non-small cell lung cancer cell A549 (expressing wild-type EGFR gene), human non-small cell lung cancer cell NCI-H2122 (expressing wild-type EGFR gene), human non-small cell lung cancer cell NCI-H460 (expressing wild-type EGFR gene), human non-small cell lung cancer cell PC-9 (expressing EGFR delE746_A750 mutant gene), Chinese hamster ovary cell CHO (Cricetulus griseus, hamster, Chinese, ovary), Chinese hamster lung cell CHL, human non-small cell lung cancer cell HCC827 (expressing mutant EGFR del19 gene), human lung adenocarcinoma cell HCC4006 (expressing mutant EGFR del19 gene), human non-small cell lung cancer cell NCI-H2228 (expressing wild-type ALK gene), and mouse primary B cell BaF3 were used, and the above cells were all purchased from ATCC (US). In addition, mouse BaF3-TEL-ALK (stably expressing ALK kinase), mouse BaF3-ALK-F1174L (stably expressing mutant ALK F1174L kinase), mouse BaF3-NPM-ALK (stably expressing ALK kinase), mouse BaF3-TEL-EGFR (stably expressing EGFR kinase), mouse BaF3-TEL-EGFR-T790M (stably expressing EGFR T790M mutant kinase), mouse BaF3-FL-EGFR-Del19 (stably expressing EGFR delE746_A750 mutant kinase), mouse BaF3-TEL-EGFR-L858R (stably expressing EGFR L858R mutant kinase), mouse BaF3-FL-EGFR-T790M-L858R (stably expressing EGFR T790M/L858R mutant kinase), mouse BaF3-TEL-INSR (stably expressing INSR protein), mouse BaF3-TEL-IGF1R (stably expressing IGF1R Protein), mouse BaF3-EML4-ALK (stably expressing EML4-ALK Protein), mouse BaF3-TEL-JAK3 (stably expressing JAK3 kinase protein), mouse BaF3-TEL-CSF1R (stably expressing CSF1R protein), and mouse BaF3-TEL-ALK-F1196M (stably expressing ALK F1196M mutant kinase) were also used in this example. The above cell lines were all established by our laboratory via the following process: kinase proteins or protein domain sequences of human ALK, ALK F1174L, EGFR, EGFR T790M, EGFR delE746_A750, EGFR L858, EGFR T790M/L858R, INSR, IGF1R, EML4-ALK, JAK3, CSF1R, ALK F1196M were amplified respectively by PCR, and were respectively inserted into MSCV-Puro vector (Clontech) with N-terminal TEL fragments and/or NPM fragments and/or TPR fragments; the resultants were stably transfected into mouse BaF3 cells by the means of retrovirus, and the IL-3 growth factors were removed, and eventually the ALK, ALK F1174L, EGFR, EGFR T790M, EGFR delE746_A750, EGFR L858, EGFR T790M/L858R, INSR, IGF1R, EML4-ALK, JAK3, CSF1R, ALK F1196M-transferred protein dependent cell lines were obtained.
(§2) The number of viable cells was determined quantitatively by a microplate reader using Cell Titer-Glo® (Promega, US) chemiluminescence cell viability assay kit.

BaF3-NPM-ALK = assay: Cell growth (Cell Titer-Glo viability), BaF3-NPM-ALK; assay type: cell-based; settings: Mus musculus; BaF3-NPM-ALK (stably expressing ALK kinase), 72 hrs
NCI-H1975 = assay: Growth of cancer cells (Cell Titer-Glo viability), NCI-H1975; assay type: cell-based; settings: Homo sapiens; NCI-H1975 (EGFR L858R/T790M double mutant), 72 hrs
Summary of the method: (§3)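 Cells are counted as viable by CellTiter-Glo chemiluminescence. Murine BaF3 lines depend on a stably transfected TEL-fused kinase after IL-3 withdrawal, and the NSCLC lines express mutant EGFR.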

BaF3 = assay: Cell growth (Cell Titer-Glo viability), BaF3; assay type: cell-based; settings: BaF3 mouse primary B cell, 72 hrs
PC-9 = assay: Growth of cancer cells (Cell Titer-Glo viability), PC-9; assay type: cell-based; settings: Homo sapiens; PC-9 (EGFR delE746_A750 mutant), 72 hrs
Summary of the method: as §3

BaF3-TEL-ALK-F1196M = assay: Cell growth (Cell Titer-Glo viability), BaF3-TEL-ALK-F1196M; assay type: cell-based; settings: Mus musculus; BaF3-TEL-ALK-F1196M (ALK F1196M mutant kinase), 72 hrs
Text: By testing the effect of the novel kinase inhibitors on the proliferation of cancer cells, the selectivity of the compounds of the present disclosure in inhibiting the proliferation of cancer cells was further assessed. In this example, human non-small cell lung cancer cell NCI-H1975 (expressing EGFR L858R/T790M double mutant gene), human skin squamous carcinoma cell A431 (expressing wild-type EGFR gene), non-small cell lung cancer NCI-H3255 (expressing EGFR L858R mutant gene), non-small cell lung cancer cell NCI-H3122 (expressing ALK gene), human non-small cell lung cancer cell A549 (expressing wild-type EGFR gene), human non-small cell lung cancer cell NCI-H2122 (expressing wild-type EGFR gene), human non-small cell lung cancer cell NCI-H460 (expressing wild-type EGFR gene), human non-small cell lung cancer cell PC-9 (expressing EGFR delE746_A750 mutant gene), Chinese hamster ovary cell CHO (Cricetulus griseus, hamster, Chinese, ovary), Chinese hamster lung cell CHL, human non-small cell lung cancer cell HCC827 (expressing mutant EGFR del19 gene), human lung adenocarcinoma cell HCC4006 (expressing mutant EGFR del19 gene), human non-small cell lung cancer cell NCI-H2228 (expressing wild-type ALK gene), and mouse primary B cell BaF3 were used, and the above cells were all purchased from ATCC (US). […]
as §2

BaF3-TEL-ALK = assay: Cell growth (Cell Titer-Glo viability), BaF3-TEL-ALK; assay type: cell-based; settings: Mus musculus; BaF3-TEL-ALK (stably expressing ALK kinase), 72 hrs
Summary of the method: as §3

NCI-H460 = assay: Growth of cancer cells (Cell Titer-Glo viability), NCI-H460; assay type: cell-based; settings: Homo sapiens; NCI-H460 (wild-type EGFR), 72 hrs
Text: as §1, §2

BaF3-TEL-EGFR-T790M = assay: Cell growth (Cell Titer-Glo viability), BaF3-TEL-EGFR-T790M; assay type: cell-based; settings: Mus musculus; BaF3-TEL-EGFR-T790M (EGFR T790M mutant kinase), 72 hrs
Summary of the method: as §3

[1] = test system: EGFR protein (wild-type EGFR, A549); assay: Effect on signaling pathway in cells, A549; assay type: cell-based, human; settings: control at 1 μM, 4 h, compared with Compound 1 (little effect)
Text: In four cell lines (all purchased from ATCC) including non-small cell lung cancer cell line A549 (expressing wild-type EGFR gene), non-small cell lung cancer cell line H1975 (expressing EGFR L858R/T790M double mutant gene), non-small cell lung cancer cell line H3255 (expressing EGFR L858R mutant gene) and non-small cell lung cancer cell line PC-9 (expressing EGFR delE746_A750 mutant gene), the effect of Compound 1 on EGFR or other protein kinases related to signaling pathways of EGFR such as Stat3, AKT, ErK, eIF4E, 4EBP1, P70S6K was assessed by assaying a number of cellular biochemical and functional endpoints. […] The effect of Compound 1 on phosphorylation of Stat3Y705, AKT T308, AKT 5473, Erk T202/204, EGFR Y1068, P70S6K Thr389, eIF4E Ser209, Erk T202/204, 4EBP1 (Thr37/46) in these cell lines was assayed (FIGS. 1a to 1d).

NCI-H2228 = assay: Growth of cancer cells (Cell Titer-Glo viability), NCI-H2228; assay type: cell-based; settings: Homo sapiens; NCI-H2228 (wild-type ALK), 72 hrs
HCC4006 = assay: Growth of cancer cells (Cell Titer-Glo viability), HCC4006; assay type: cell-based; settings: Homo sapiens; HCC4006 (mutant EGFR del19), 72 hrs
Summary of the method: as §3

HCC827 = assay: Growth of cancer cells (Cell Titer-Glo viability), HCC827; assay type: cell-based; settings: Homo sapiens; HCC827 (mutant EGFR del19), 72 hrs
Summary of the method: as §3

NCI-H3255 = assay: Growth of cancer cells (Cell Titer-Glo viability), NCI-H3255; assay type: cell-based; settings: Homo sapiens; NCI-H3255 (EGFR L858R mutant), 72 hrs
Summary of the method: as §3

BaF3-TEL-EGFR = assay: Cell growth (Cell Titer-Glo viability), BaF3-TEL-EGFR; assay type: cell-based; settings: Mus musculus; BaF3-TEL-EGFR (stably expressing EGFR kinase), 72 hrs
Summary of the method: as §3

NCI-H2122 = assay: Growth of cancer cells (Cell Titer-Glo viability), NCI-H2122; assay type: cell-based; settings: Homo sapiens; NCI-H2122 (wild-type EGFR), 72 hrs

GI50 (NCI-H3122) [nM]	GI50 (BaF3-TEL-INSR) [nM]	GI50 (BaF3-NPM-ALK) [nM]	GI50 (NCI-H1975) [nM]	GI50 (BaF3) [µM]	GI50 (PC-9) [nM]	GI50 (BaF3-TEL-ALK-F1196M) [nM]	GI50 (BaF3-TEL-ALK) [nM]	GI50 (NCI-H460) [µM]	GI50 (BaF3-TEL-EGFR-T790M) [nM]	GI50 (NCI-H2228) [nM]	GI50 (HCC4006) [nM]	GI50 (HCC827) [nM]	GI50 (NCI-H3255) [nM]	GI50 (BaF3-TEL-EGFR) [nM]	GI50 (NCI-H2122) [µM]	SMILES	effect on phosphorylation of EGFR protein and of STAT3, S6K, AKT, ERK, eIF4E [1]
2	7	1	48	3	14	6	1									C=CC(=O)Nc1cc(Nc2ncc(F)c(Nc3ccccc3S(=O)(=O)C(C)C)n2)c(OC)cc1N1CCN(CC)CC1 [Compound 82, N-(2-(4-ethylpiperazin-1-yl)-5-(5-fluoro-4-(2-(isopropylsulfonyl)phenylamino)pyrimidin-2-ylamino)-4-methoxyphenyl)acrylamide]	
2	4	2	43	6.6	6	2	1									C=CC(=O)Nc1cc(Nc2ncc(C)c(Nc3ccccc3S(=O)(=O)C(C)C)n2)c(OC)cc1N1CCN(CC)CC1 [Compound 84, N-(2-(4-ethylpiperazin-1-yl)-5-(4-(2-(isopropylsulfonyl)phenylamino)-5-methylpyrimidin-2-ylamino)-4-methoxyphenyl)acrylamide]	
3200		1400	21		27			8.1	46	1100	7.2	1.2	390	1600	5.7	C=CC(=O)Nc1cccc(Oc2nc(Nc3ccc(N4CCN(C)CC4)cc3OC)ncc2Cl)c1 [WZ4002, reference compound]	behaved similarly
